Results on 20 compounds are retold here after US9957264B2 (Merck Sharp & Dohme Corp., priority 2013, dated 2018).

Chain of JAK1 (recombinant purified GST-tagged catalytic domain) (P23458 875-1153): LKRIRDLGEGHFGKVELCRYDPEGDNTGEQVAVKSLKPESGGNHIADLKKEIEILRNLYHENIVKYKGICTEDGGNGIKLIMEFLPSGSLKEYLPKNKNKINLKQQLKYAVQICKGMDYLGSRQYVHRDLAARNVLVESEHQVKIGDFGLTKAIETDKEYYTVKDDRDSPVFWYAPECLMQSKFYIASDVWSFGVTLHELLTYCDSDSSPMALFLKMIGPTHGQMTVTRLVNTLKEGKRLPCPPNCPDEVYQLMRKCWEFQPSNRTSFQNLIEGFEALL

In this assay the target is JAK1 (recombinant purified GST-tagged catalytic domain) (Homo sapiens (Human), UniProt P23458). Description: Jak Biochemical HTRF Assay (JAK1). The conditions noted are these: [ATP] 31.8 μM. The procedure:
Jak Biochemical HTRF Assay Protocol
The ability of compounds to inhibit the activity of JAK1, JAK2, JAK3, and Tyk2 was measured using a recombinant purified GST-tagged catalytic domain for each enzyme (Invitrogen JAK1 #M4290, JAK2 #M4290, JAK3 #M4290, Tyk2 #M4290) in an HTRF format biochemical assay. The reactions employed a common peptide substrate, LCB-[…]-NH2 (in-house). The basic assay protocol is as follows: First, 250 nL of diluted compounds in DMSO were dispensed into the wells of a dry 384-well Black plate (Greiner #781076) using a Labcyte Echo 555 acoustic dispenser. Subsequent reagent additions employed an Agilent Bravo. […] After equilibration, 2 μL of 10×ATP in 1× assay buffer was added to initiate the kinase reaction and the plates were shaken and then incubated at room temperature for 120 minutes. At the end of the incubation, 20 μL of 2× stop buffer (streptavidin-Dylight 650 (Thermo #84547B/100 mL), Eu-tagged pY20 antibody (Perkin Elmer #AD0067), EDTA, HEPES, and Triton) was added to quench the reaction. Plates were shaken and centrifuged and then incubated 60 minutes at room temperature and then read on a Perkin Elmer Envision (λex=337 nm, λem=665 and 615 nm, TRF delay time=20 μs). HTRF signal=10,000*665 nm reading/615 nm reading. After normalization to untreated controls, the percent inhibition of the HTRF signal at each compound concentration was calculated. The plot of percent inhibition versus the log of compound concentration was fit with a 4-parameter dose response equation to calculate IC50 values.
Final reaction conditions were:
Examples of the instant invention were evaluated in JAK1 and JAK2 in vitro binding assays as described above. The following table tabulates the JAK1 IC50 values and JAK2 IC50 values disclosed for the instant invention.
A general note: TR-FRET usually uses a lanthanide donor and a delayed reading to cut background.
What is called IC50 is the midpoint of a concentration-inhibition curve. `CC1(C)OC(=O)c2ccc(Nc3nn(C4(CC#N)CCCC4)c4cc[nH]c(=O)c34)cc21` [Example 5-126, (1-{3-[(3,3-dimethyl-1-oxo-1,3-dihydro-2-benzofuran-5-yl)amino]-4-oxo-4,5-dihydro-1H-pyrazolo[4,3-c]pyridin-1-yl}cyclopentyl)acetonitrile]: the IC50 amounted to 4.53 nM.

As to `CN(C)S(=O)(=O)c1ccc(Nc2nn([C@]3(CC#N)CC[C@H](N4CC(F)C4)CC3)c3cc[nH]c(=O)c23)cc1` [Example 18-30, Cis 4-((1-(1-(cyanomethyl)-4-(3-fluoroazetidin-1-yl)cyclohexyl)-4-oxo-4,5-dihydro-1H-pyrazolo[4,3-c]pyridin-3-yl)amino)-N,N-dimethylbenzenesulfonamide], the IC50 amounted to 2.62 nM.

In the case of `CN(C)S(=O)(=O)c1ccc(Nc2nn(C3(CC#N)CCN(C(=O)Cc4ccc(C(F)(F)F)cc4)CC3)c3cc[nH]c(=O)c23)cc1` [Example 9-16, 4-({1-[4-(cyanomethyl)-1-{[4-(trifluoromethyl)phenyl]acetyl}piperidin-4-yl]-4-oxo-4,5-dihydro-1H-pyrazolo[4,3-c]pyridin-3-yl}amino)-N,N-dimethylbenzenesulfonamide], the IC50 came out at 1.05 nM.

`CCC(=O)N1CCC(CC#N)(n2nc(Nc3ccc(S(=O)(=O)N(C)C)cc3)c3c(=O)[nH]ccc32)CC1` [Example 9-1, 4-({1-[4-(cyanomethyl)-1-propanoylpiperidin-4-yl]-4-oxo-4,5-dihydro-1H-pyrazolo[4,3-c]pyridin-3-yl}amino)-N,N-dimethylbenzenesulfonamide]: the IC50 was found to be 0.11 nM.

In the case of `CC(C)NS(=O)(=O)c1ccc(Nc2nn(C3(CC#N)CCCC3)c3cc[nH]c(=O)c23)cc1` [Example 5-130, 4-((1-(1-(cyanomethyl)cyclopentyl)-4-oxo-4,5-dihydro-1H-pyrazolo[4,3-c]pyridin-3-yl)amino)-N-isopropylbenzene-sulfonamide], the IC50 was 0.5 nM.

On to `CC(C)S(=N)(=O)c1ccc(Nc2nn([C@]3(CC#N)CC[C@@H](C(=O)OC(C)(C)C)OC3)c3cc[nH]c(=O)c23)cc1` (single isomer, unassigned) [Example 5-230, (2S,5S)-tert-butyl 5-(cyanomethyl)-5-(4-oxo-3-((4-(propan-2-yl-(S or R)-sulfonimidoyl)phenyl)amino)-4,5-dihydro-1H-pyrazolo[4,3-c]pyridin-1-yl)tetrahydro-2H-pyran-2-carboxylate], for which the 50% inhibitory concentration (IC50) turned out to be 0.12 nM.

For the compound `CC(C)(C)N1Cc2cc(Nc3nn([C@@]4(CC#N)CCOC[C@H]4F)c4cc[nH]c(=O)c34)ccc2C1=O` (single isomer, unassigned) [Example 5-260, 2-((3S,4S or 3R,4R)-4-(3-(2-tert-butyl-1-oxoisoindolin-5-ylamino)-4-oxo-4,5-dihydropyrazolo[4,3-c]pyridin-1-yl)-3-fluoro-tetrahydro-2H-pyran-4-yl)acetonitrile], the IC50 turned out to be 0.26 nM.

Regarding `CC(C)(C)OC(=O)[C@@H]1CC[C@@](CC#N)(n2nc(Nc3ccc4c(c3)NC(=O)C4(C)C)c3c(=O)[nH]ccc32)CO1` [Example 21-3, (2S,5S)-tert-butyl 5-(cyanomethyl)-5-(3-((3,3-dimethyl-2-oxoindolin-6-yl)amino)-4-oxo-4,5-dihydro-1H-pyrazolo[4,3-c]pyridin-1-yl)tetrahydro-2H-pyran-2-carboxylate], the IC50 turned out to be 0.07 nM.

Regarding `CC(C)(C)OC(=O)[C@H]1CC[C@](CC#N)(n2nc(Nc3ccc4c(c3)CN(C(C)(C)C)S4(=O)=O)c3c(=O)[nH]ccc32)CO1` [Example 5-42, (2R,5R)-tert-butyl 5-(3-((2-(tert-butyl)-1,1-dioxido-2,3-dihydrobenzo[d]isothiazol-5-yl)amino)-4-oxo-4,5-dihydro-1H-pyrazolo[4,3-c]pyridin-1-yl)-5-(cyanomethyl)tetrahydro-2H-pyran-2-carboxylate], the IC50 amounted to 1.6 nM.

Regarding `CC(C)(C)OC(=O)[C@@H]1CC[C@@](CC#N)(n2nc(Nc3ccc4c(c3)CN(C(C)(C)C)S4(=O)=O)c3c(=O)[nH]ccc32)CO1` [Example 5-41, (2S,5S)-tert-butyl 5-(3-((2-(tert-butyl)-1,1-dioxido-2,3-dihydrobenzo [d]isothiazol-5-yl)amino)-4-oxo-4,5-dihydro-1H-pyrazolo[4,3-c]pyridin-1-yl)-5-(cyanomethyl) tetrahydro-2H-pyran-2-carboxylate], the IC50 stood at 0.09 nM.

Consider `CC(C)S(=N)(=O)c1ccc(Nc2nn([C@]3(CC#N)CC[C@@H](C(=O)OC(C)(C)C)OC3)c3cc[nH]c(=O)c23)cc1` (single isomer, unassigned) [Example 5-231, (2S,5S)-tert-butyl 5-(cyanomethyl)-5-(4-oxo-3-((4-(propan-2-yl-(S or R)-sulfonimidoyl)phenyl)amino)-4,5-dihydro-1H-pyrazolo[4,3-c]pyridin-1-yl)tetrahydro-2H-pyran-2-carboxylate], for which the IC50 came out at 0.12 nM.

Turning to `CC(C)(C)N1Cc2cc(Nc3nn([C@]4(CC#N)CCOC[C@@H]4F)c4cc[nH]c(=O)c34)ccc2C1=O` (single isomer, unassigned) [Example 5-259, 2-((3R,4R or 3S,4S)-4-(3-((2-(tert-butyl)-1-oxoisoindolin-5-yl)amino)-4-oxo-4,5-dihydro-1H-pyrazolo[4,3-c]pyridin-1-yl)-3-fluorotetrahydro-2H-pyran-4-yl)acetonitrile], the IC50 is 0.04 nM.

Consider `COC(=O)c1ccc(Nc2nn(C3(CC#N)CN(C(=O)OC(C)(C)C)C3)c3cc[nH]c(=O)c23)cc1` [Example 4-2, tert-butyl 3-(cyanomethyl)-3-(3((4(methoxycarbonyl)phenyl)amino)-4-oxo-4,5-dihydro-1H-pyrazolo[4,3-c]pyridin-1-yl)azetidine-1-carboxylate], for which the IC50 is 2.47 nM.

As to `CC1(C)Cc2cc(Nc3nn([C@]4(CC#N)CCCOC4)c4cc[nH]c(=O)c34)ccc2C1(O)C(F)(F)F` (single isomer, unassigned) [Example 5-119, 2-((S)-3-(3-(((S or R)-1-hydroxy-2,2-dimethyl-1-(trifluoromethyl)-2,3-dihydro-1H-inden-5-yl)amino)-4-oxo-4,5-dihydro-1H-pyrazolo[4,3-c]pyridin-1-yl)tetrahydro-2H-pyran-3-yl)acetonitrile], the concentration for half-maximal inhibition (IC50) came out at 0.15 nM.

For the compound `C[C@H]1CN(C(=O)OC(C)(C)C)CC[C@]1(CC#N)n1nc(Nc2ccc(S(C)(=O)=O)cc2)c2c(=O)[nH]ccc21` (racemic) [Example 5-10, tert-butyl (3R,4S and 3S,4R)-4-(cyanomethyl)-3-methyl-4-(3-{[4-(methylsulfonyl)phenyl]amino}-4-oxo-4,5-dihydro-1H-pyrazolo[4,3-c]pyridin-1-yl)piperidine-1-carboxylate], the IC50 came to 0.23 nM.

With `CN(C)S(=O)(=O)c1ccc(Nc2nn(C3(CC#N)CCN(Cc4ccc(C#N)cc4)CC3)c3cc[nH]c(=O)c23)cc1` [Example 8-5], the IC50 turned out to be 0.2 nM.

As for `C[C@@H]1CN(C(=O)OC(C)(C)C)CC[C@]1(CC#N)n1nc(Nc2ccc(S(C)(=O)=O)cc2)c2c(=O)[nH]ccc21` (racemic) [Example 5-11, tert-butyl (3S,4S and 3R,4R)-4-(cyanomethyl)-3-methyl-4-(3-{[4-(methylsulfonyl)phenyl]amino}-4-oxo-4,5-dihydro-1H-pyrazolo[4,3-c]pyridin-1-yl)piperidine-1-carboxylate], the IC50 is 0.2 nM.

With `N#CC[C@@]1(n2nc(Nc3ccc4c(c3)CN(C3CCNCC3)S4(=O)=O)c3c(=O)[nH]ccc32)CCOC[C@@H]1F` (single isomer, unassigned) [Example 5-272, 2-((3R,4R or 3S,4S)-4-(3-((1,1-dioxido-2-(piperidin-4-yl)-2,3-dihydrobenzo [d]isothiazol-5-yl)amino)-4-oxo-4,5-dihydro-1H-pyrazolo[4,3-c]pyridin-1-yl)-3-fluorotetrahydro-2H-pyran-4-yl)acetonitrile], the IC50 worked out at 0.06 nM.

With `CC(C)(C)N1Cc2cc(Nc3nn(C4(CC#N)CCCC4)c4cc[nH]c(=O)c34)ccc2S1(=O)=O` [Example 5-121, 2-(1-(3-((2-(tert-butyl)-1,1-dioxido-2,3-dihydrobenzo[d]isothiazol-5-yl)amino)-4-oxo-4,5-dihydro-1H-pyrazolo[4,3-c]pyridin-1-yl)cyclopentyl)acetonitrile], the IC50 was determined as 0.04 nM.

For `CC(C)(C)OC(=O)[C@@H]1CC[C@@](CC#N)(n2nc(Nc3ccc(C(O)(C(C)(C)C)C(F)(F)F)cc3)c3c(=O)[nH]ccc32)CO1` (single isomer, unassigned) [Example 5-167, (2S,5S)-tert-butyl 5-(cyanomethyl)-5-(4-oxo-3-((4-((S or R)-1,1,1-trifluoro-2-hydroxy-3,3-dimethylbutan-2-yl)phenyl)amino)-4,5-dihydro-1H-pyrazolo[4,3-c]pyridin-1-yl)tetrahydro-2H-pyran-2-carboxylate], the IC50 amounted to 0.83 nM.
